Results as given in US12263155B2, “Combinations of monoamine oxidase inhibitors and serotonin receptor agonists and their therapeutic use” (Remedi, Inc., priority 2022, dated 2025).

Columns and labels:
[1] = Plasma and brain CX157 concentrations after oral dosing in rats; details: rat; for Kp at 2 h / Kp at 4 h / Kp at 8 h / Kp at 18 h / Kp at 24 h / concentration at 0 h / concentration at 2 h / concentration at 4 h / concentration at 8 h / concentration at 18 h / concentration at 24 h: male, Sprague-Dawley, po
Oxidase MAO-B Peripheral = biological target: T1, Oxidase MAO-B Peripheral (Rattus norvegicus, UniProt P19643); experiment: NovaScreen ligand-binding screen, MAO-B; details: 10.0 nM and 100 nM
T1 construct: purchased NovaScreen
T1 sequence (P19643 1-520): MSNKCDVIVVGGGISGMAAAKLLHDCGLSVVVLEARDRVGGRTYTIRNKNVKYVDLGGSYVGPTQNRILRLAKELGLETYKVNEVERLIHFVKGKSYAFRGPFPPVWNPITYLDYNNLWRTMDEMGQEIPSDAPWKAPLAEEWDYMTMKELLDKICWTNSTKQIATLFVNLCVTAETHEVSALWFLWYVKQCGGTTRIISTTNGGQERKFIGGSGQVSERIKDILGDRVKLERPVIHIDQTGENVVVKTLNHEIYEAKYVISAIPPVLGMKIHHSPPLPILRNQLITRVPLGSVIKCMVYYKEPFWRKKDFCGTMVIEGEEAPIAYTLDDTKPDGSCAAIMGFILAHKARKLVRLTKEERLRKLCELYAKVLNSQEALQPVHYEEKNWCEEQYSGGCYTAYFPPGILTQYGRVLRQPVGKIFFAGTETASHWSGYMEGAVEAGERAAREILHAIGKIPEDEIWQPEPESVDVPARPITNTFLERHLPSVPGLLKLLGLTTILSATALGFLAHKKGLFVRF
Procedure: Methods: Investigational drug candidates CX157 were analyzed in NovaScreen's bank of ligand-binding reactions to test for specificity. CX157 was screened at concentrations of both 10.0 nM and 100 nM as potential competitors in binding reactions involving nine classes containing 69 binding sites. The following binding reactions are tested: Adenosine Non-selective, Adrenergic Alpha 1 Non-selective, Adrenergic Alpha 2 Non-selective, Adrenergic Beta Non-selective, Dopamine Transporter, Dopamine Non-selective, GABA A Agonist Site, GABA A BDZ alpha 1 site, GABA B, Glutamate AMPA Site (Ionotropic), Glutamate Kainate Site (Ionotropic), Glutamate NMDA Agonist Site (Ionotropic), Glutamate NMDA Glycine (Stry-insens Site) (Ionotrophic), Glycine Strychnine-sensitive, Histamine H1, Histamine H2, Histamine H3, Melatonin Non-selective, Muscarinic M1 (hr), Muscarinic M2 (hr), Muscarinic Non-selective Central, Muscarinic Non-selective Peripheral, Nicotinic (α-BnTx insensitive) Neuronal, Norepinephrine Transporter, Opioid Non-selective, Orphanin (hr), Serotonin Transporter, Serotonin Non-selective, Sigma Non-selective, Estrogen, Testosterone (cytosolic), Calcium Channel Type L (Dihydropyridine Site), Calcium Channel Type N, Potassium Channel ATP-Sensitive, Potassium Channel Ca2+ Act. VI, Potassium Channel I[Kr]

[2] = 10, 20 and 40 mg twice daily for 14 days, healthy volunteers
Procedure: Methods: The study was a Phase I, single-center, randomized, parallel-group, multiple-dose, placebo-controlled, pharmacodynamic, pharmacokinetic and safety study in healthy volunteers. To obtain 24 enrolled subjects, screening procedures and inclusion/exclusion criteria were evaluated for 54 subjects during a variable screening period of up to 28 days. Once enrolled, subjects were randomized to either CX157 10 mg, 20 mg or 40 mg or matching placebo administered twice daily for 14 consecutive days.

[3] = Fed versus fasted pharmacokinetics of modified release tablet; format: in vivo; details: human, plasma, oral, 175 mg; fed and fasted; read-out: half-life, mean, range over treatments
Procedure: Methods: A total of 18 subjects were to participate and receive a single dose of CX157 Modified Release Tablet, 175 mg in fed or fasted states according to a randomization schedule. There was a six to seven-day washout period between the two study drug administrations.
Each CX157 Modified Release Tablet, 175 mg is stored long-term at controlled room temperature conditions [25° C. (77° F.), excursions 15-30° C. (59-86° F.)]; the tablets are a modified caplet shape, pale pink in color, and plain on both sides.

[4] = brain and plasma, 5 mg/kg, mean brain/plasma ratio of CX157 concentrations, 5 mg/kg oral
[5] = brain and plasma, 10 mg/kg, mean brain/plasma ratio of CX157 concentrations, 10 mg/kg oral
[6] = brain/plasma, 1 mg/kg, mean brain/plasma ratio of CX157 concentrations, 1 mg/kg oral

## O=S1(=O)c2ccc(F)cc2Oc2cc(OCC(F)(F)F)ccc21 [CX157, 3-fluoro-7(2,2,2-trifluorethoxy)phenoxathiine-10,10-dioxide]
[1]; [4]
  Kp at 2 h: 2.5
  Kp at 8 h: 5
  Kp at 18 h: 3.7
  Kp at 24 h: 7.4
[1]; brain and plasma, 5 mg/kg, mean brain/plasma ratio of CX157 concentrations, 5 mg/kg oral, 4 h
  Kp at 4 h: 2.2
[1]; [5]
  Kp at 2 h: 3.1
  Kp at 8 h: 2.2
  Kp at 18 h: 7.2
  Kp at 24 h: 8.5
[1]; brain and plasma, 10 mg/kg, mean brain/plasma ratio of CX157 concentrations, 10 mg/kg oral, 4 h
  Kp at 4 h: 1.9
[1]; brain, 1 mg/kg
  concentration at 0 h: 0 ng/mL
  concentration at 2 h: 103 ng/mL
  concentration at 4 h: 71.7 ng/mL
  concentration at 8 h: 76.5 ng/mL
  concentration at 18 h: 17.3 ng/mL
  concentration at 24 h: 13.2 ng/mL
[1]; brain, 5 mg/kg
  concentration at 0 h: 0 ng/mL
  concentration at 2 h: 447 ng/mL
  concentration at 4 h: 386 ng/mL
  concentration at 8 h: 535 ng/mL
  concentration at 18 h: 140 ng/mL
  concentration at 24 h: 85.8 ng/mL
[1]; brain, 10 mg/kg
  concentration at 0 h: 0 ng/mL
  concentration at 2 h: 387 ng/mL
  concentration at 4 h: 513 ng/mL
  concentration at 8 h: 540 ng/mL
  concentration at 18 h: 56.6 ng/mL
  concentration at 24 h: 86.6 ng/mL
[1]; brain/plasma, 1 mg/kg, brain concentration higher than plasma concentration, e.g. 4 hours after a 1 mg/kg oral dose
  Kp at 4 h: ≤ 10
[1]; [6]
  Kp at 2 h: 7.4
  Kp at 8 h: 6.5
  Kp at 18 h: 5.7
  Kp at 24 h: 4.8
[1]; brain/plasma, 1 mg/kg, mean brain/plasma ratio of CX157 concentrations, 1 mg/kg oral, 4 h
  Kp at 4 h: 10.3
[1]; plasma, 1 mg/kg
  concentration at 0 h: 0 ng/mL
  concentration at 2 h: 20 ng/mL
  concentration at 4 h: 9.9 ng/mL
  concentration at 8 h: 13.4 ng/mL
  concentration at 18 h: 4.5 ng/mL
  concentration at 24 h: 3.2 ng/mL
[1]; plasma, 5 mg/kg
  concentration at 0 h: 0 ng/mL
  concentration at 2 h: 184 ng/mL
  concentration at 4 h: 214 ng/mL
  concentration at 8 h: 189 ng/mL
  concentration at 18 h: 26.8 ng/mL
  concentration at 24 h: 14.3 ng/mL
[1]; plasma, 10 mg/kg
  concentration at 0 h: 0 ng/mL
  concentration at 2 h: 158 ng/mL
  concentration at 4 h: 412 ng/mL
  concentration at 8 h: 257 ng/mL
  concentration at 18 h: 8.5 ng/mL
  concentration at 24 h: 5.4 ng/mL
[1]; oral
  blood-brain-barrier penetration: penetrated the blood-brain-barrier
[1]; oral 1, 5, 10 mg/kg
  time of maximum plasma levels: two to four hours
[1]; oral, particularly 10 mg/kg
  pharmacokinetic half-life in brain versus plasma: longer pharmacokinetic half-life in the brain than in plasma
Oxidase MAO-B Peripheral
  binding to MAO-B: did not bind to MAO-B
[2]
  safety and tolerability: generally safe and well tolerated
[3]
  half-life: 20.6 to 23.5 h
